From patent US11826467B2, “W/O/W microemulsions for ocular administration” (University of Tennessee Research Foundation, priority 2017, dated 2023)

Key:
IOP [1] = experiment: Efficacy of other gabapentinoid drugs (IOP, viscous eye drops); assay type: in vivo; conditions: 0.9% drug in 2% HPMC viscous eye drops, C57Bl/6 J mice
Description: To determine if other members of the gabapentinoid drug family are also efficacious in reducing IOP, we compared the efficacy of 0.9% pregabalin, 0.9% 2-phenylglycine and 0.9% gabapentin in 2% HPMC viscous eye drops in C57Bl/6 J mice.
2-phenylglycine (FIG. 28) and gabapentin (FIG. 29) were not as efficacious as pregabalin although they both had maximum IOP reductions of −8% and areas under the curve of −14% hr.

[2] = cited from earlier work
IOP [3] = experiment: IOP lowering by pregabalin HPMC eye drops in mice (dose response); assay type: in vivo, B6 mice
Description: 0.9% is the minimum concentration that gives maximum effect (n=5).
(§1) It is also modestly present in the CM. Based upon these collective data, it appears that CACNA2D1 regulates IOP (FIG. 3). Pregabalin, or other gabapentinoid drugs, binds to the CACNA2D1 subunit of the calcium channel. The binding of the drug mitigates the flux of calcium through the α1 pore of the calcium channel, reducing the level of intracellular calcium. Since Cacna2d1 modulates IOP, pregabalin, a gabapentinoid drug with high specificity for CACNA2D1, was evaluated for its ability to affect IOP. […] The 1.2% pregabalin eye drops extended the duration of the IOP-lowering effect of pregabalin above that obtained with 0.6% pregabalin. Because there was no significant difference in the percent reduction of IOP between 0.9 and 1.2% pregabalin, we selected 0.9% as the minimal concentration required to produce the maximum reduction in IOP. Expanding this analysis to an additional species, we observed a similar IOP-lowering response (22.1±2.8%) in Dutch belted rabbits after instillation of 0.9% pregabalin eye drops (FIG. 5).

IOP [4] = experiment: IOP lowering by pregabalin HPMC eye drops in rabbits; assay type: in vivo; conditions: 0.9% pregabalin in HPMC eye drops, Dutch belted rabbits
Description: FIG. 5: Pregabalin (0.9%) suspended in hydroxypropyl methylcellulose (HPMC) lowers IOP by 23% in Dutch belted rabbits (n=5).
as §1

Row | SMILES | area under the curve (IOP [1]) | maximum IOP reduction (IOP [1]) | solubility in water [2] | time at which IOP returned to baseline (IOP [1]) | IOP-lowering effect compared to control (IOP [3]; drops containing 0.3% pregabalin suspended in HPMC, topical, B6 mice) | IOP reduction, dose dependence (IOP [3]; pregabalin 0.3-1.2% suspended in HPMC, eye drops, mice) | minimal concentration required to produce the maximum reduction in IOP (IOP [3]; pregabalin in HPMC eye drops, B6 mice, plateau, no significant difference 0.9 vs 1.2%) | IOP-lowering response (IOP reduction) (IOP [4]) | IOP-lowering response (IOP reduction) (IOP [4]; listed as pregabalin)
1 | NC(C(=O)O)c1ccccc1 (stereo not shown) [2-phenylglycine] | −14 % hr | −8% | – | – | – | – | – | – | –
2 | NC(=O)c1ncn([C@@H]2O[C@H](CO)[C@@H](O)[C@H]2O)n1 [Ribavirin, 113-D-ribofuranosyl-1H-1,2,4-triazole-3-carboxamide] | – | – | freely soluble in water | – | – | – | – | – | –
3 | NCC1(CC(=O)O)CCCCC1 [gabapentin] | −14 % hr | −8% | – | – | – | – | – | – | –
4 | CC(C)C[C@H](CN)CC(=O)O [Pregabalin, pregabalin] | 65 % hr | 17.3% | – | ≤ 6 h | no IOP-lowering effect | dose-dependent manner | 0.9% | 23% | 22.1±2.8%
